# In paper PMC7720599, “Rhenium N-heterocyclic carbene complexes block growth of aggressive cancers by inhibiting FGFR- and SRC-mediated signalling” (Journal of Experimental & Clinical Cancer Research : CR, 2020):
# System: zebrafish embryos
# Assay: Zebrafish embryo teratogenicity
# Format: in vivo
# Settings: treatment from 2hpf, images at 24hpf
# Method: Embryos were observed daily at 24 h intervals and toxicity scores (hatching and mortality) were recorded until 120hpf. For heart rate assessments, embryos were anesthetized with tricaine (ethyl 3-aminobenzoate methanesulfonate) at 48hpf and counted under the stereomicroscope for 1min. To assess JVG045 teratogenicity compared to BGJ398, embryos were treated with the compounds starting from 2hpf and results observed at 24hpf. Compounds were prepared in DMSO and diluted to the final concentration in E2 embryo medium. DMSO was used as negative control.
structure (smiles),measurement,value
"CCN1CCN(c2ccc(Nc3cc(N(C)C(=O)Nc4c(Cl)c(OC)cc(OC)c4Cl)ncn3)cc2)CC1 [BGJ398, 3-(2,6-Dichloro-3,5-dimethoxy-phenyl)-1-{6-[4-(4-ethyl-piperazin-1-yl)-phenylamino]-pyrimidin-4-yl}-1-methyl-urea]",concentration at which developmental defects start,500 to 1000 nM
